Assays:
[1] = biological target: T1, human alpha 1a adrenergic receptor (Homo sapiens, UniProt P35348); test: Screening Assay: Alpha 1a Adrenergic Receptor Binding ([125I]-HEAT competition)
T1 construct: expressed in transfected cells; host or cells: stably transfected human alpha 1a cell line (ATCC CRL 11140)
T1 sequence (P35348 1-466): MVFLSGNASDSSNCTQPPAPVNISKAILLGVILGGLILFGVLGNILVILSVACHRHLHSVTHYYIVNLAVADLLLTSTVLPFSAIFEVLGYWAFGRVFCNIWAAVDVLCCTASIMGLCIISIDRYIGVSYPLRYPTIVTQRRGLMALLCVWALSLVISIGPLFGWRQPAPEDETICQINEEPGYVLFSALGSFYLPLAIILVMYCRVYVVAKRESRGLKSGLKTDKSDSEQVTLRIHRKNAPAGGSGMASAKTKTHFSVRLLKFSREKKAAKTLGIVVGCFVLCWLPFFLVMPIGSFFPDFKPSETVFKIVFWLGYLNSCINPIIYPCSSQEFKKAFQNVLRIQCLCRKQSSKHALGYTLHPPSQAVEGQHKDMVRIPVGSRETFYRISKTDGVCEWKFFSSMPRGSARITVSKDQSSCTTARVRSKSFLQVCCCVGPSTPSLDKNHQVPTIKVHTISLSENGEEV
Procedure: Screening Assay: Alpha 1a Adrenergic Receptor Binding
Membranes prepared from the stably transfected human alpha 1a cell line (ATCC CRL 11140) were used to identify compounds that bind to the human alpha 1a adrenergic receptor. These competition binding reactions (total volume=200 μl) contained 50 mM Tris-HCl pH. 7.4, 5 mM EDTA, 150 mM NaCl, 100 pM [^125 I]-HEAT, membranes prepared from the alpha 1a cell line and increasing amounts of unlabeled ligand. Reactions were incubated at room temperature for one hour with shaking. Reactions were filtered onto Whatman GF/C glass fiber filters with a Inotec 96 well cell harvester. Filters were washed three times with ice cold buffer and bound radioactivity was determined (Ki).

[2] = tested on: human alpha 1b adrenergic receptor; test: Selective Binding Assay, alpha 1b ([125I]-HEAT competition); settings: alpha 1a versus alpha 1b
Procedure: Membranes prepared from stably transfected human alpha 1d and alpha 1b cell lines (ATCC CRL 11138 and CRL 11139, respectively) were used to identify compounds that selectively bind to the human alpha 1a adrenergic receptor. These competition binding reactions (total volume=200 μl) contained 50 mM Tris-HCl pH. 7.4, 5 mM EDTA, 150 mM NaCl, 100 pM [^125 I]-HEAT, membranes prepared from cell lines transfected with the respective alpha 1 subtype expression plasmid and increasing amounts of unlabeled ligand. Reactions were incubated at room temperature for one hour with shaking. Reactions were filtered onto Whatman GF/C glass fiber filters with a Inotec 96 well cell harvester. Filters were washed three times with ice cold buffer and bound radioactivity was determined (Ki).

Row | Compound | Ki ([1]; human alpha 1a cell line membranes, 100 pM [125I]-HEAT, room temperature, one hour) | selectivity in binding to alpha 1a receptors versus alpha 1b [2] | alpha 1 antagonist activity of the (S) enantiomer relative to the (R) enantiomer ([1]; enantiomer comparison, in words, test not specified)
1 | CC1=C(C(=O)NCCCN2CCC(C#N)(c3ccccn3)CC2)[C@@H](c2ccc(F)c(F)c2)CC(=O)N1C [Example 17, 4-(R)-(3 ,4-Difluorophenyl)-1,6-dimethyl-3,4-dihydro-2-pyridinone-5-carboxylic acid{3-[4-(2-pyridyl)-4-cyano-piperidine-1-yl]-propyl}amide] | 257 nM | about 8 fold | –
2 | CC1=C(C(=O)NCCCN2CCC(c3ccc(F)cc3)CC2)[C@H](c2ccc(F)c(F)c2)CC(=O)N1 [Example 18 (S enantiomer), 4-(S)-(3,4-difluorophenyl)-6-methyl-3,4-dihydro-2-pyridinone-5-carboxylic acid{3-[4-(4-fluorophenyl)-piperidine-1-yl]-propyl}amide] | – | – | less active

From US6235759A, “Dihydropyridinones and pyrrolinones useful as alpha 1A adrenoceptor antagonists” (Merck & Co., Inc., priority 1999, dated 2001)
